The source of these data is patent publication US9707155B2, “Delamination resistant pharmaceutical glass containers containing active pharmaceutical ingredients” (Corning Incorporated, priority 2013, dated 2017).

By half-life is commonly meant the time needed for the level to fall by half in the phase considered.

The subject of series [1] is tumor xenografts (WM9). Kind of series: Melanoma xenografts (WM9) in nude mice. Format: in vivo. The following applies: 5 days treatment, versus untreated mice. The procedure:
Tumor cells (5×10^6) are injected into the bilateral flanks of female […] nude mice (6-8 weeks of age). The tumors are measured with calipers using the formula: V=[…], where V is the volume, L is the largest diameter, and I is the perpendicular diameter of the tumor. When the volume of the tumor nodules reaches 100-150 mm^3, mice are randomly assigned to control or treatment groups (6-9 mice/group).
Therapeutic treatment with a combination of SAR2405550/BSI-201 and the alkylating agent TMZ was initiated when tumor xenografts (WM9) in nude mice reach 100 mm^3 in volume and treatment was continued for 5 days. In specific instances, the tumor volume is measured for assessment of therapeutic effect.

The nature of series [2]: Stability after storage conditions. It is filed as physicochemical. The following applies: under the chosen conditions.
The test system of series [3] is blood glucose. Kind of series: Action profile in dogs (blood glucose as percentage of initial level). It is filed as in vivo. As to conditions: blood glucose at 1 h, 2 h, 3 h, 5 h, 7h. The procedure:
An action profile of Lyxumia and/or Lyxumia and Lantus (in combination) after subjection to the storage conditions described in Example 6 is carried out by comparing insulin glargine in dogs with human insulin-Arg^B31-Arg^B32-OH and basal H insulin as an NPH (neutral protamine Hagedorn) composition containing about 10 μg of Zn^2+.
Blood glucose is measured as a percentage of the initial level at the following time points: 1 h, 2 h, 3 h, 5 h, 7h.

For series [4], the system named is patients with acute coronary syndromes. As to conditions: compared to unfractionated heparin and eptifibatide; cited from earlier work.
The conditions of series [5]: in vivo; cited from earlier work.
The test system of series [6] is tumor cell lines. The following applies: cited from earlier work.
The conditions of series [7]: cited from earlier work.
The subject of series [8] is patients with active rheumatoid arthritis. The following applies: week 12, subcutaneous, relative to placebo, patients receiving methotrexate; cited from earlier work.
The test system of series [9] is BAF-h130 cells. Kind of series: IL-6 signaling mediated by sIL-6R, BAF-h130 proliferation ([3H]-thymidine uptake). It is filed as cell-based, murine. As to conditions: IL-6 100 ng/mL, sIL-6R 500 ng/mL, 4 days. The procedure: BAF-h130 cell is a human gp130-transfected murine pro-B cell, BAF-B03. BAF-h130 cells (1×10^4) are cultured with IL-6 (100 ng/mL) (Genzyme-techne, Minneapolis, Minn., USA), sIL-6R (500 ng/mL) or sarilumab (0.01-100 Ag/mL) at 37° C. under 5% CO2 for 4 days in 96-well flat-bottomed plates. The culture is performed in quadruplicate. [^3H]-thymidine (10 μL/well, 3.7 MBq/mL) (Amercham Pharmacia Biotech, Piscataway, N.J., USA) is added to each well 5 h before the completion of culture. After incubation, the amount of [^3H]-thymidine uptake into cells is determined with a scintillation counter (1450 MicroBeta) (Wallace Oy, Turku, Finland).
BaF-h130 cells could grow by the co-addition of IL-6 (100 ng/ml) and sIL-6R (500 ng/mL), but not by IL-6 or sIL-6R alone. […] Sarilumab suppresses the IL-6/sIL-6R complex-induced proliferation of human gp130-transfected cell, BAF-h130.

Series [10] has as its target T1, human IL-6R (Homo sapiens, UniProt P08887).
T1 construct: expressed in transfected cells; host or cells: COS-7 cells
T1 sequence (P08887 20-468): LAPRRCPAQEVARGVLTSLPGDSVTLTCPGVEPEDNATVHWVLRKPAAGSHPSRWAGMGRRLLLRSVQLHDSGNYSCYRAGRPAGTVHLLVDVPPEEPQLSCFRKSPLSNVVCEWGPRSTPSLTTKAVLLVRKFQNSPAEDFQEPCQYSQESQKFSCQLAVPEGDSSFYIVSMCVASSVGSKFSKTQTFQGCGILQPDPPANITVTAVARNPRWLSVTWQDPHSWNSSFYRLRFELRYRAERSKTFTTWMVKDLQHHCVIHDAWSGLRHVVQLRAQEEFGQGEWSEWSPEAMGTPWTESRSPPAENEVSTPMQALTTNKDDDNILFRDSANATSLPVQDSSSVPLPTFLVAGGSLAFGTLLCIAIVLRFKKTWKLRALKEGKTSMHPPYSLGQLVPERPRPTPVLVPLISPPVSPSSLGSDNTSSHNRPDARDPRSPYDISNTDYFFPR
Kind of series: Binding to COS-7 cells transfected with human IL-6R (fluorescent intensity). Format: cell-based. The procedure: COS-7 cells (1×10^6) are inoculated into 10 mL of the medium on a 10 cm dish. Next day, the old medium is replaced with 20 mL of new medium per dish. After 3.42 mL of Opti-MEM (Invitrogen, Carlsbad, Calif., USA) is placed in a polystyrene tube, 180 μL of Trans-IT LTI reagent (Takara Bio, Shiga, Japan) is added and mixed well. The mixture (3.6 mL) is left at room temperature for 15 min. After 60 μg of human IL-6R expression vector hIL-6R/pcDNA3.1 (+) or control (empty) vector pcDNA3.1 (+) (Invitrogen) is added to 5.4 mL of Opti-MEM and mixed well with the above mixture, the resulting solution (9 mL) is allowed to stand at room temperature for 15 min, divided in 3 mL aliquots on three dishes, and incubated at 37 8 C under 5% CO2 for 3 days.

Series [11] has as its system IL-6-dependent myeloma cell line, KPMM2. Kind of series: IL-6 signaling mediated by mIL-6R, KPMM2 growth. It is filed as cell-based. The procedure:
IL-6-dependent myeloma cell line, KPMM2 (1×10^5 cells/mL) are cultured with IL-6 (0-100 ng/mL) and sarilumab (0-100 μg/mL) in a CO2 incubator for 4 days in a 96-well plate. After incubation, the amount of [^3H]-thymidine uptake into cells is determined with a scintillation counter.

Regarding `Cn1nnc2c(C(N)=O)ncn2c1=O` [TMZ], the tumor growth result in series [1] was “No significant differences in tumor growth”.
Consider “21^A-Gly-30^Ba-L-Arg-30^Bb-L-Arg-human insulin [Gly^A21-Human Insulin-Arg^B31-Arg^B32-OH]”, for which, in series [2], the stability result is “stable for a long period of time”. Moreover, the basal action profile entry in series [3] is “same advantageous basal profile as human insulin-Arg^B31-Arg^B32-OH”.
For `COC(=O)[C@H](Cc1cccc(C(=N)N)c1)[C@@H](C)NC(=O)c1ccc(-c2cc[n+]([O-])cc2)cc1` (mixture of isomers) [Otamixaban, Methyl(2R,3R)-2-{3-[amino(imino)methyl]benzyl}-3-{[4-(1-oxidopyridin-4-yl)benzoyl]amino}butanoate], in series [4], the “combined end point of death or myocardial infarction” value is on record as “significant reduction”. Further, the half-life in [5] is ~30 min.
`NC(=O)c1ccc(I)c([N+](=O)[O-])c1` [Iniparib, 4-iodo-3-nitrobenzamide]: in series [6], the cell cycle arrest result is “inducing cell cycle arrest in the G2/M phase”, the “potentiation of DNA damaging modalities” value is on record as “potentiating the cell cycle effects of DNA damaging modalities” and the γ-H2AX induction entry is on record as “inducing γ-H2AX”. Moreover, the solubility result in series [7] is “soluble”.

B1: Sarilumab: fully human monoclonal antibody that selectively targets the interleukin-6 receptor (IL-6R) (antibody, chains of the INN, looked up, V domains shown)
VH: EVQLVESGGGLVQPGRSLRLSCAASRFTFDDYAMHWVRQAPGKGLEWVSGISWNSGRIGYADSVKGRFTISRDNAENSLFLQMNGLRAEDTALYYCAKGRDSFDIWGQGTMVTVSS
VL: DIQMTQSPSSVSASVGDRVTITCRASQGISSWLAWYQQKPGKAPKLLIYGASSLESGVPSRFSGSGSGTDFTLTISSLQPEDFASYYCQQANSFPYTFGQGTKLEIK
Turning to B1, in series [8], the ACR20 result was “significant and clinically relevant improvements”. Also, the “proliferation of BAF-h130 cells induced by IL-6/sIL-6R complex” value in [9] was “suppresses the proliferation of BAF-h130 cells induced by the complex of IL-6 and sIL-6R in a concentration-dependent manner”. In addition, the “fluorescent intensity in COS-7 cells expressing human IL-6R” value in series [10] (IL-6R transfectant) is on record as “increases the fluorescent intensity”. In series [10] (control vector pcDNA3.1 (+) transfectant), the “fluorescent intensity in COS-7 mock cells” value is recorded as “not in COS-7 mock cells”. Besides, in [11], the “growth of KPMM2” value is recorded as “suppress the growth”.
